Measured values published in patent US8450308B2 (Vitae Pharmaceuticals, Inc., priority 2008, dated 2013).

biological target: T1, truncated human beta-secretase (residues 1-458, His6-tagged at the C-terminus) (Homo sapiens, UniProt P56817); test: BACE fluorescence quench assay; format: biochemical; conditions: not given
T1 construct: truncated human beta-secretase (residues 1-458, His6-tagged at the C-terminus); His6 (C); made in house; host or cells: insect cells D. melanogaster S2 (baculovirus expression system (so in the source))
T1 sequence (P56817 22-458): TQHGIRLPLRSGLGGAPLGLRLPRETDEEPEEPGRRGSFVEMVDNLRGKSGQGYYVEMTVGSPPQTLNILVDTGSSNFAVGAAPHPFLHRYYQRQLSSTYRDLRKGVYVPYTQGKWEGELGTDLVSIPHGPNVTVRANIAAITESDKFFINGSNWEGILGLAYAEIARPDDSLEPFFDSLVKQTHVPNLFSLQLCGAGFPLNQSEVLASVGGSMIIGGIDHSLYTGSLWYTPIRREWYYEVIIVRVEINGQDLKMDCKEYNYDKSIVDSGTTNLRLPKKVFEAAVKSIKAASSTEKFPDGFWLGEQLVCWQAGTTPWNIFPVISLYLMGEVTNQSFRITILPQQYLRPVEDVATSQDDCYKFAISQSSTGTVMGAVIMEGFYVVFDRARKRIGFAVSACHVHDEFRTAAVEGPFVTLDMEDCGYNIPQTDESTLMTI

Compared with CN1C(=O)C2(CC(c3ccccc3)Oc3ccc(-c4cccc(C(F)(F)F)c4)cc32)N=C1N (stereo not shown) [Compound 30, 2′-amino-1′-methyl-2-phenyl-6-(3-(trifluoromethyl)phenyl)spiro[chroman-4,4′-imidazol]-5′(1′H)-one], COc1cccc(-c2ccc3c(c2)C2(CC(c4ccccc4)O3)N=C(N)N(C)C2=O)c1 (stereo not shown) [Compound 13, 2′-amino-6-(3-methoxyphenyl)-1′-methyl-2-phenylspiro[chroman-4,4′-imidazol]-5′(1′H)-one] is lower in IC50: 1 to 5 µM for the first, 0.1 to 0.5 µM for the second. The second is the more potent here.

Work on CN1C(=O)C2(CC(c3ccccc3)Oc3ccc(-c4cccc(S(C)(=O)=O)c4)cc32)N=C1N (stereo not shown) [Compound 28, 2′-amino-1′-methyl-6-(3-(methylsulfonyl)phenyl)-2-phenylspiro[chroman-4,4′-imidazol]-5′(1′H)-one] yielded an IC50 of 1 to 5 µM.

same assay, conditions: in vitro enzyme activity, BACE fluorescence assay, pH 4.5; read-out: IC50

CN1OC2(CC3(CCCOCC3)Oc3ccc(-c4cccc(C#N)c4)cc32)N=C1N (stereo not shown) [Compound 116] and CN1OC2(CC3(CCC(Oc4ccccc4)CC3)Oc3ccc(-c4cccc(C#N)c4)cc32)N=C1N (stereo not shown) [Compound 383] fall in the same range of IC50: 1 to 5 µM for the first, 1 to 5 µM for the second.

First: CN1OC2(CC(C3COc4ccccc4C3)Oc3ccc(-c4cccc(C#N)c4)cc32)N=C1N (stereo not shown) [Compound 422]
Second: CC1CC(C2CC3(N=C(N)N(C)O3)c3cc(-c4cccc(C#N)c4)ccc3O2)CC(C)O1 (stereo not shown) [Compound 319]
The IC50 of the first is higher: 1 to 5 µM for the first, 0.1 to 0.5 µM for the second.

Compared with CN1OC2(CC(C3CCOCC3)Oc3ccc(-c4cc(Cl)cc(C#N)c4)cc32)N=C1N (stereo not shown) [Compound 350], CN1OC2(CC(C3CCCOC3)Oc3ccc(-c4cccc(Cl)c4)cc32)N=C1N (stereo not shown) [Compound 87] is lower in IC50: 0.5 to 1 µM for the first, 0.1 to 0.5 µM for the second. The second is the more potent here.

First: CN1OC2(CC(c3ccccc3)Oc3cc(F)c(-c4cccnc4F)cc32)N=C1N (stereo not shown) [Compound 104, 7-fluoro-6-(2-fluoropyridin-3-yl)-2′-methyl-2-phenyl-2′H-spiro[chroman-4,5′-[1,2,4]oxadiazol]-3′-amine]
Second: CN1OC2(C[C@H](C3CCCOC3)Oc3ccc(-c4cccnc4F)cc32)N=C1N (stereo partly shown) [Compound 89b]
The IC50 of the first is higher: 5 to 10 µM for the first, 1 to 5 µM for the second.

First: CC(C)c1cccc(-c2ccc3c(c2)C2(CC(C4CCCOC4)O3)N=C(N)N(C)O2)c1 (stereo not shown) [Compound 101, 6-(3-isopropylphenyl)-2′-methyl-2-(tetrahydro-2H-pyran-3-yl)-2′H-spiro[chroman-4,5′-[1,2,4]oxadiazol]-3′-amine]
Second: CN1O[C@@]2(C[C@H]([C@@H]3CCCOC3)Oc3ccc(-c4cc(F)cc(F)c4)cc32)N=C1N (racemic) [Compound 326, (2S,4S/2R,4R)-6-(3,5-difluorophenyl)-2′-methyl-2-((S/R)-tetrahydro-2H-pyran-3-yl)-2′H-spiro[chroman-4,5′-[1,2,4]oxadiazol]-3′-amine]
The IC50 of the first is higher: 1 to 5 µM for the first, 0.1 to 0.5 µM for the second. The second is the more potent here.

First: CN1C(=O)[C@@]2(C[C@@]3(CCCOC3)Oc3ccc(-c4ccc5cn[nH]c5c4)cc32)N=C1N [Compound 457]
Second: CSc1cccc(-c2ccc3c(c2)[C@]2(C[C@@]4(CCCOC4)O3)N=C(N)N(C)C2=O)c1 [Compound 405]
The IC50 of the first is higher: 10 to 50 µM for the first, 1 to 5 µM for the second.

Compared with CN1C(=O)C2(CC(C3CCOC(C)(C)C3)Oc3ccc(-c4cc(F)cc(Cl)c4)cc32)N=C1N (stereo not shown) [Compound 417], CN1C(=O)C2(CC(C3CCOC(C)(C)C3)Oc3ccc(-c4cccc(F)c4)cc32)N=C1N (stereo not shown) [Compound 452] is higher in IC50: 1 to 5 µM for the first, 10 to 50 µM for the second. The first is the more potent here.

Compared with CC(=O)c1cccc(-c2ccc3c(c2)[C@]2(C[C@]4(CCCOC4)O3)N=C(N)N(C)C2=O)c1 [Compound 358], CC1CCCC2(C1)CC1(N=C(N)N(C)C1=O)c1cc(-c3cccc(C#N)c3)ccc1O2 (stereo not shown) [Compound 82] is higher in IC50: 0.5 to 1 µM for the first, 1 to 5 µM for the second.

First: CN1C(=O)C2(CC(c3ccccc3)Oc3ccc(-c4cccc(C5CC5)c4)cc32)N=C1N (stereo not shown) [Compound 11, 2′-amino-6-(3-cyclopropylphenyl)-1′-methyl-2-phenylspiro[chroman-4,4′-imidazol]-5′(1′H)-one]
Second: CN1OC2(C[C@H]([C@H]3CCOC(C)(C)C3)Oc3ccc(-c4ccc(F)c(F)c4)cc32)N=C1N (stereo partly shown) [Compound 365]
The IC50 of the first is lower: 0.1 to 0.5 µM for the first, 0.5 to 1 µM for the second. The first is the more potent here.

For CN1OC2(C[C@H]([C@@H]3CCOC(C)(C)C3)Oc3ccc(-c4cc(F)ccc4F)cc32)N=C1N (stereo partly shown) [Compound 384], the IC50 was 1 to 5 µM.
